Earlier results as cited in patent publication US20170261495A1, “MODEL SYSTEMS FOR SCREENING MODULATORS OF mTOR SIGNALING” (SHRINERS HOSPITALS FOR CHILDREN, priority 2015, published 2017).

Details: clinical trials

SMILES: CO[C@H]1C[C@@H]2CC[C@@H](C)[C@@](O)(O2)C(=O)C(=O)N2CCCC[C@H]2C(=O)O[C@H]([C@H](C)C[C@@H]2CC[C@@H](OCCO)[C@H](OC)C2)CC(=O)[C@H](C)/C=C(\C)[C@@H](O)[C@@H](OC)C(=O)[C@H](C)C[C@H](C)/C=C/C=C/C=C/1C [everolimus]
- effects on epilepsy (TSC): minimal
- size of renal and brain tumors (TSC (Krueger et al., 2010)): clear reduction
